pIC50: −log10 of the molar value. Read-outs that look alike come from different tables or passages of the source.
Tested on: mast cells
Experiment: Early and delayed mast cell responses induced by FcεRI aggregation
Assay type: cell-based
Procedure: Binding of Btk and Vav with SLP-76 is critical for regulating PLC-γ activity on the membrane, calcium mobilisation and granule exocytosis^27, 28.
• 1) Chemical products and antibodies. A chemical bank of 3000 molecules (a varied subset) was acquired from ChemBridge, Inc. (San Diego, Calif.). Stocks of solutions of small molecules were prepared at a rate of 10 mM in DMSO (dimethylsulphoxide), except for C-13 (methyl 2-{5-[(3-benzyl-4-oxo-2-thioxo-1,3-thiazolidin-5-ylidene)methyl]-2-furyl}benzoate, ChemBridge ID No. 6197026) prepared in DMF (dimethylformamide). Unless specified otherwise, all the reagents were supplied by Sigma. Dinitrophenyl (DNP) hapten was acquired from Calbiochem. […] The binding of G4G11 with Syk was assessed by adding the 9E10 monoclonal antibody conjugated with HRP detecting the amino acid sequence EQKLISEEDLN of human c-myc protein located at the C-terminal end of the scFv fragment. To generate Syk mutants, targeted mutagenesis was used on GST:Syk 6-242 protein and the binding of G4G11 with the mutants was assessed in the presence of 5 μM of C-13. • 3) Cells, culture conditions and functional tests. […] The level of β-hexosaminidase released was measured 10 min later and the TNF-α titration was performed by means of a cytotoxicity test on L929 cells as described previously^10, 3 hours after stimulation. […]

SMILES: COC(=O)c1ccccc1-c1ccc(/C=C2/SC(=S)N(Cc3ccccc3)C2=O)o1 [Molecule C-13, methyl 2-{5-[(3-benzyl-4-oxo-2-thioxo-1,3-thiazolidin-5-ylidene)methyl]-2-furyl}benzoate]
- pIC50 (read-out: estimated IC50, delayed mast cell response (TNF-α secretion)): ~5.70
- pIC50 (read-out: estimated IC50, early mast cell response (β-hexosaminidase release)): ~5.70

Source: patent US9504676B2, “Molecules inhibiting a metabolic pathway involving the Syk protein tyrosine kinase and method for identifying said molecules” (CENTRE NATIONAL DE LA RECHERCHE SCIENTIFIQUE, priority 2008, dated 2016)
